Key:
[1] = Half life in beagle dog at 5 mg/kg, po followed by activated charcoal administration 3 hrs post compound dosing; type: ADME, organism-based, Canis lupus familiaris; set-up: dose 5 mg/kg, route oral; details: in vivo
[2] = Apparent oral clearance in beagle dog at 5 mg/kg, po followed by activated charcoal administration 3 hrs post compound dosing; type: ADME, organism-based, Canis lupus familiaris; set-up: dose 5 mg/kg, route oral; details: in vivo
[3] = Oral steady-state volume of distribution in beagle dog at 5 mg/kg followed by activated charcoal administration 3 hrs post compound dosing; type: ADME, organism-based, Canis lupus familiaris; set-up: dose 5 mg/kg; details: in vivo, read-out: Vss/F
[4] = Mean residence time in beagle dog at 5 mg/kg, po followed by activated charcoal administration 3 hrs post compound dosing; type: ADME, organism-based, Canis lupus familiaris; set-up: dose 5 mg/kg, route oral; details: in vivo
[5] = Oral bioavailability in beagle dog at 5 mg/kg followed by activated charcoal administration 3 hrs post compound dosing; type: ADME, organism-based, Canis lupus familiaris; details: in vivo
Rattus norvegicus = organism: Rattus norvegicus; assay: Plasma clearance in rat relative to hepatic blood flow; type: ADME, organism-based; details: in vivo
Canis familiaris = organism: Canis familiaris; assay: Plasma clearance in dog relative to hepatic blood flow; type: ADME, organism-based, Canis lupus familiaris; details: in vivo
Homo sapiens [6] = organism: Homo sapiens; assay: Plasma clearance in human relative to hepatic blood flow; type: ADME, organism-based; details: in vivo
Homo sapiens [7] = assay: Volume of distribution in human administered bid orally; type: ADME, organism-based; details: in vivo, po
[8] = Half life in human administered bid orally; type: ADME, organism-based; details: in vivo, po
[9] = AUC (0 to infinity) in wild-type Sprague-Dawley rat at 4 mg/kg, po; type: ADME, organism-based; set-up: time infinity, dose 4 mg/kg, route oral; details: plasma
[10] = Cmax in wild-type Sprague-Dawley rat at 4 mg/kg, po; type: ADME, organism-based; set-up: dose 4 mg/kg, route oral; details: in vivo
[11] = Half life in wild-type Sprague-Dawley rat at 4 mg/kg, po; type: ADME, organism-based; set-up: dose 4 mg/kg, route oral; details: in vivo
[12] = Apparent oral clearance in wild-type Sprague-Dawley rat at 4 mg/kg, po; type: ADME, organism-based; set-up: dose 4 mg/kg, route oral; details: in vivo
[13] = Oral steady-state volume of distribution in wild-type Sprague-Dawley rat at 4 mg/kg; type: ADME, organism-based; set-up: dose 4 mg/kg; details: in vivo, read-out: Vss/F
[14] = Mean residence time in wild-type Sprague-Dawley rat at 4 mg/kg, po; type: ADME, organism-based; set-up: dose 4 mg/kg, route oral; details: in vivo
[15] = Oral bioavailability in wild-type Sprague-Dawley rat at 4 mg/kg; type: ADME, organism-based; details: in vivo
[16] = AUC (0 to infinity) in P-gp-knockout Sprague-Dawley rat at 4 mg/kg, po; type: ADME, organism-based; set-up: time infinity, dose 4 mg/kg, route oral; details: plasma
[17] = Cmax in P-gp-knockout Sprague-Dawley rat at 4 mg/kg, po; type: ADME, organism-based; set-up: dose 4 mg/kg, route oral; details: in vivo
[18] = Half life in P-gp-knockout Sprague-Dawley rat at 4 mg/kg, po; type: ADME, organism-based; set-up: dose 4 mg/kg, route oral; details: in vivo
[19] = Apparent oral clearance in P-gp-knockout Sprague-Dawley rat at 4 mg/kg, po; type: ADME, organism-based; set-up: dose 4 mg/kg, route oral; details: in vivo
[20] = Oral steady-state volume of distribution in P-gp-knockout Sprague-Dawley rat at 4 mg/kg; type: ADME, organism-based; set-up: dose 4 mg/kg; details: in vivo, read-out: Vss/F
[21] = Mean residence time in P-gp-knockout Sprague-Dawley rat at 4 mg/kg, po; type: ADME, organism-based; set-up: dose 4 mg/kg, route oral; details: in vivo
[22] = Oral bioavailability in P-gp-knockout Sprague-Dawley rat at 4 mg/kg; type: ADME, organism-based; details: in vivo
[23] = AUC (0 to infinity) in BCRP-knockout Sprague-Dawley rat at 4 mg/kg, po; type: ADME, organism-based; set-up: time infinity, dose 4 mg/kg, route oral; details: plasma
[24] = Cmax in BCRP-knockout Sprague-Dawley rat at 4 mg/kg, po; type: ADME, organism-based; set-up: dose 4 mg/kg, route oral; details: in vivo
[25] = Half life in BCRP-knockout Sprague-Dawley rat at 4 mg/kg, po; type: ADME, organism-based; set-up: dose 4 mg/kg, route oral; details: in vivo
[26] = Apparent oral clearance in BCRP-knockout Sprague-Dawley rat at 4 mg/kg, po; type: ADME, organism-based; set-up: dose 4 mg/kg, route oral; details: in vivo
[27] = Oral steady-state volume of distribution in BCRP-knockout Sprague-Dawley rat at 4 mg/kg; type: ADME, organism-based; set-up: dose 4 mg/kg; details: in vivo, read-out: Vss/F
[28] = Mean residence time in BCRP-knockout Sprague-Dawley rat at 4 mg/kg, po; type: ADME, organism-based; set-up: dose 4 mg/kg, route oral; details: in vivo
[29] = Oral bioavailability in BCRP-knockout Sprague-Dawley rat at 4 mg/kg; type: ADME, organism-based; details: in vivo
[30] = AUC (0 to infinity) in Sprague-Dawley rat at 4 mg/kg, po administered 1 hr post GF-120918 treatment; type: ADME, organism-based; set-up: time infinity, dose 4 mg/kg, route oral; details: plasma, with GF-120918

Compound: COc1ccc(-n2nc(C(N)=O)c3c2C(=O)N(c2ccc(N4CCCCC4=O)cc2)CC3)cc1
- half-life [1]: 3 h
- CL/F [2]: 1.68 mL/min/kg
- Vd/F [3]: 0.5 L/kg
- MRT [4]: 5.3 h
- bioavailability [5]: 77%
- CL (Rattus norvegicus): < 5%
- CL (Canis familiaris): < 5%
- CL (Homo sapiens [6]): < 5%
- Vd (Homo sapiens [7]): 0.3 L/kg
- half-life [8]: 12 h
- AUC(0-inf) [9]: 1390 ng·h/mL
- Cmax [10]: 420 ng/mL
- half-life [11]: 3.3 h
- CL/F [12]: 25 mL/min/kg
- Vd/F [13]: 5.8 L/kg
- MRT [14]: 3.8 h
- bioavailability [15]: 49%
- AUC(0-inf) [16]: 3340 ng·h/mL
- Cmax [17]: 940 ng/mL
- half-life [18]: 3.8 h
- CL/F [19]: 10 mL/min/kg
- Vd/F [20]: 2.4 L/kg
- MRT [21]: 3.8 h
- bioavailability [22]: 71%
- AUC(0-inf) [23]: 5710 ng·h/mL
- Cmax [24]: 1920 ng/mL
- half-life [25]: 2.5 h
- CL/F [26]: 6.67 mL/min/kg
- Vd/F [27]: 1.1 L/kg
- MRT [28]: 2.9 h
- bioavailability [29]: 122%
- AUC(0-inf) [30]: 6570 ng·h/mL
